Where two headings read alike, the source gives them in different places.
Legend:
[1] = system: skin infection; type: in vivo, human
Protocol: (§1) The method of the invention has been carried out with respect to a number of skin disorders. The patients were treated with one of two peptides, each at a concentration of 50 μg/gr cream (unless otherwise indicated):
(§2) The cream was manufactured by Amiga LTD, Israel, and contains the following components:
1. person two suffered from an infection on the wrist of the left hand, apparently an allergic reaction to a watch band. Large spots appeared around the wrist accompanied by redness.
2. person three suffered from an infection on the wrist of the left hand, apparently an allergic reaction to a watch band. Large spots appeared around the wrist accompanied by redness and itching.
3. 2 cases of infected skin wounds.

[2] = system: psoriasis; type: in vivo, human; conditions: person
Protocol: as §1, §2
1. A person suffered from intermittent psoriasis on their head over many years. […] The patient believes that the frequency of the outbreaks has been reduced.
2. A person suffered from psoriasis on the hands. […] The patient believes that a 20% improvement has occurred over 2 weeks.
3. A person suffered from psoriasis in the anus.
4. A person suffered from extensive psoriasis at various locations. ZEP3 (500 μg/gr cream) was applied to the sores as needed. • Results: the itching ceased within 12 hours.
5. A person suffered from chronic psoriasis on the elbow.
6. A person suffered from severe psoriasis at various locations. They regularly went for treatments to the Dead Sea in Israel.

[3] = person three, wrist infection, allergic reaction to watch band, 500 μg/gr cream several times a day
[4] = chronic psoriasis on elbow, 500 μg/gr cream
[5] = intermittent psoriasis on head, 500 μg/gr cream once or twice a day

pGLU-ASN-TRP-LYS-C8 [ZEP3]
clinical outcome ([1]; 2 cases of infected skin wounds, 50 μg/gr cream): aided in the healing of the wounds
clinical outcome [1, 3]: immediate relief from the itching
time to decrease in redness [1, 3]: ≤ 24 h
clinical outcome [2, 4]: the flaking of the skin disappeared and the normal skin appearance returned
time until itching terminated [2, 4]: 2 h
time until itching ceased ([2]; extensive psoriasis, 500 μg/gr cream as needed): ≤ 12 h
clinical outcome [2, 5]: the disease disappeared
time to relief [2, 5]: 10 to 20 min
time until relief is felt ([2]; psoriasis in the anus, (500 μg/gr cream) once a day): 4 days
clinical outcome ([2]; psoriasis in the anus, (500 μg/gr cream) once a day, stopped several days, repeated for 4 days): the psoriasis disappeared
clinical outcome ([2]; psoriasis on hands, 500 μg/gr cream once a day): feels relief; the skin is pleasant feeling and not itchy
improvement as believed by the patient ([2]; psoriasis on hands, 500 μg/gr cream once a day, over 2 weeks): 20%

— patent US9012397B2 (priority 2011, dated 2015)
